According to paper doi:10.1101/2025.08.21.671483v1, “In vitro and in vivo activity profiles of broad-spectrum bacterial ATP synthase inhibitors” (biorxiv, 2025):
In brackets after ≈: the same amount, converted by molar mass. Like-named read-outs stand apart in the source and are kept apart here. Where a SMILES comes first, the peptide text is derived from it. Bridges are numbered along the chain shown (N, C = ends). [ ]: non-standard residue; d: D form. The star is where a group is joined. Heptanoyl(5-Me) = CCC(C)CCCC(=O)*; Dab = NCC[C@H](N)C(=O)O

Assays:
[1] = test system: T1, Citrobacterfreundii ATCC 8090; experiment: organism not typed; set-up: species or system bacteria; CLSI broth microdilution MIC, no visible growth; details: read-out: Table 5 IMI MIC
T1 construct: ATCC 8090

Escherichia coli ec302 = test system: T2, Escherichia coli ec302; experiment: microbe, parasite or virus in culture; set-up: species or system bacteria; CLSI broth microdilution MIC, no visible growth
T2 construct: ec302

Escherichia coli ec310 = test system: T3, Escherichia coli ec310; experiment: microbe, parasite or virus in culture; set-up: species or system bacteria; CLSI broth microdilution MIC, no visible growth
T3 construct: ec310

[2] = test system: T4, Escherichia coli ATCC BAA2471; experiment: microbe, parasite or virus in culture; set-up: species or system bacteria; CLSI broth microdilution MIC, no visible growth
T4 construct: ATCC BAA-2471

[3] = test system: T5, Escherichia coli 95882 CW-2011; experiment: microbe, parasite or virus in culture; set-up: species or system bacteria; CLSI broth microdilution MIC, no visible growth
T5 construct: 95882 CW-2011

[4] = test system: T6, Escherichia coli ATCC 35218; experiment: microbe, parasite or virus in culture; set-up: species or system bacteria; CLSI broth microdilution MIC, no visible growth
T6 construct: ATCC 35218

Escherichia coli ec309 = test system: T7, Escherichia coli ec309; experiment: microbe, parasite or virus in culture; set-up: species or system bacteria; CLSI broth microdilution MIC, no visible growth
T7 construct: ec309

Escherichia coli ec305 = test system: T8, Escherichia coli ec305; experiment: microbe, parasite or virus in culture; set-up: species or system bacteria; CLSI broth microdilution MIC, no visible growth
T8 construct: ec305

Escherichia coli ec308 = test system: T9, Escherichia coli ec308; experiment: microbe, parasite or virus in culture; set-up: species or system bacteria; CLSI broth microdilution MIC, no visible growth
T9 construct: ec308

[5] = test system: T10, Escherichia coli 70122 CW-2007; experiment: microbe, parasite or virus in culture; set-up: species or system bacteria; CLSI broth microdilution MIC, no visible growth
T10 construct: 70122 CW-2007

E. coli ATCC 25922 [6] = test system: T11, E. coli ATCC 25922; experiment: microbe, parasite or virus in culture; set-up: species or system bacteria; CLSI broth microdilution MIC, no visible growth; details: Escherichia coli
T11 construct: ATCC 25922

E. coli MC4100 lptD4213 = test system: T12, E. coli MC4100 lptD4213; experiment: microbe, parasite or virus in culture; details: Escherichia coli, MC4100LPTD4213, read-out: MIC
T12 construct: MC4100 lptD4213 membrane-compromised

S. aureus ATP synthase = biological target: T13, S. aureus ATP synthase (Staphylococcus aureus, UniProt Q99SF0); experiment: ATP production by membrane vesicles, luciferase luminescence; format: biochemical; details: […] NADH, 1 mM ADP, 10 mM potassium phosphate; 30 min preincubation, 60 min reaction
T13 construct: gene atpE
From the text: ATP production by membrane vesicles, luciferase luminescence on S. aureus ATP synthase

E. coli MC4100 WT = test system: T14, E. coli MC4100 WT; experiment: microbe, parasite or virus in culture; set-up: species or system bacteria; CLSI broth microdilution MIC, no visible growth; details: Escherichia coli, MC4100WT
T14 construct: MC4100 (ATCC 35695)

E. coli ATCC 25922 [7] = test system: T11, E. coli ATCC 25922; experiment: microbe, parasite or virus in culture; set-up: species or system bacteria; CLSI broth microdilution MIC, no visible growth; details: Escherichia coli; remark: listed apart in the source
E. coli ATP synthase = biological target: T15, E. coli ATP synthase (Escherichia coli, UniProt P68699); experiment: ATP production by membrane vesicles, luciferase luminescence; format: biochemical; details: […] NADH, 1 mM ADP, 10 mM potassium phosphate; 30 min preincubation, 60 min reaction
T15 construct: gene atpE
From the text: ATP production by membrane vesicles, luciferase luminescence on E. coli ATP synthase

[8] = test system: T16, Escherichia coli ATCC 25922; experiment: microbe, parasite or virus in culture; details: ATCC25922, read-out: MIC (ug/ml) first column
T16 construct: ATCC 25922

S. aureus ATCC 29740hemB = experiment: microbe, parasite or virus in culture; details: Staphylococcus aureus, ATCC29740HEMB, read-out: MIC
[9] = test system: T17, S. aureus ATCC 29740 (Newbould); experiment: microbe, parasite or virus in culture; set-up: species or system bacteria; CLSI broth microdilution MIC, no visible growth; details: Staphylococcus aureus
T17 construct: ATCC 29740 (Newbould)

E. coli MC4100 acrAB = test system: T18, E. coli MC4100 acrAB; experiment: microbe, parasite or virus in culture; details: Escherichia coli, MC4100ACRAB, read-out: MIC
T18 construct: MC4100 acrAB efflux-deficient

C[C@@H](O)[C@H]1C(=O)N2C(C(=O)O)=C(SCCNC=N)C[C@H]12 [IMI, imipenem]
MIC [1]: 1 µg/mL (≈ 3.34 µM)

CCC(C)CCCC(=O)N[C@@H](CCN)C(=O)N[C@H](C(=O)N[C@@H](CCN)C(=O)N[C@H]1CCNC(=O)[C@H]([C@@H](C)O)NC(=O)[C@H](CCN)NC(=O)[C@H](CCN)NC(=O)[C@H](CC(C)C)NC(=O)[C@@H](CC(C)C)NC(=O)[C@H](CCN)NC1=O)[C@@H](C)O (stereo partly drawn) [CST, colistin] ({Heptanoyl(5-Me)}-[Dab]T[Dab][Dab][Dab][dL]L[Dab][Dab]T; lactam 4-C)
MIC (Escherichia coli ec302; EC302, read-out: CST MIC): 0.5 µg/mL (≈ 0.433 µM)
MIC (Escherichia coli ec310; EC310, read-out: CST MIC): 1 µg/mL (≈ 0.865 µM)
MIC ([2]; ATCCBAA2471, read-out: CST MIC): 1 µg/mL (≈ 0.865 µM)
MIC ([3]; 95882CW2011, read-out: CST MIC): 0.5 µg/mL (≈ 0.433 µM)
MIC ([4]; ATCC35218, read-out: CST MIC): 2 µg/mL (≈ 1.73 µM)
MIC (Escherichia coli ec309; EC309, read-out: CST MIC): 1 µg/mL (≈ 0.865 µM)
MIC (Escherichia coli ec305; EC305, read-out: CST MIC): 0.5 µg/mL (≈ 0.433 µM)
MIC (Escherichia coli ec308; EC308, read-out: CST MIC): 0.5 µg/mL (≈ 0.433 µM)
MIC ([5]; 70122CW2007, read-out: CST MIC): 1 µg/mL (≈ 0.865 µM)
MIC (E. coli ATCC 25922 [6]; ATCC25922, read-out: CST MIC): 1 µg/mL (≈ 0.865 µM)

C[C@H]1CC[C@]2(NC1)O[C@H]1C[C@H]3[C@@H]4CC[C@H]5CC(NCCN)CC[C@]5(C)[C@H]4CC[C@]3(C)[C@H]1[C@@H]2C (mixture of isomers) [TM-02]
MIC (E. coli MC4100 lptD4213): 0.5 µg/mL
IC50 (S. aureus ATP synthase): 510 ± 170 nM
MIC (E. coli MC4100 WT; read-out: TM-02 MIC): 16 µg/mL
MIC (E. coli ATCC 25922 [7]; ATCC25922, read-out: TM-02 MIC): 32 µg/mL
IC50 (E. coli ATP synthase): 1490 ± 280 nM
MIC [8]: 32 µg/mL
MIC (S. aureus ATCC 29740hemB): ≤ 0.25 µg/mL
MIC ([9]; ATCC29740, read-out: TM-02 MIC): 4 µg/mL
MIC (Escherichia coli ec302; EC302, read-out: Table 3 TM-02 MIC): 32 µg/mL
MIC (Escherichia coli ec310; EC310, read-out: Table 3 TM-02 MIC): 32 µg/mL
MIC ([2]; ATCCBAA2471, read-out: Table 3 TM-02 MIC): 32 µg/mL
MIC ([3]; 95882CW2011, read-out: Table 3 TM-02 MIC): 32 µg/mL
MIC ([4]; ATCC35218, read-out: Table 3 TM-02 MIC): 32 µg/mL
MIC (Escherichia coli ec309; EC309, read-out: Table 3 TM-02 MIC): 32 µg/mL
MIC (Escherichia coli ec305; EC305, read-out: Table 3 TM-02 MIC): 4 µg/mL
MIC (Escherichia coli ec308; EC308, read-out: Table 3 TM-02 MIC): 8 µg/mL
MIC ([5]; 70122CW2007, read-out: Table 3 TM-02 MIC): 16 µg/mL
MIC (E. coli MC4100 acrAB): 8 µg/mL

CC(C)(O/N=C(\C(=O)N[C@@H]1C(=O)N2C(C(=O)[O-])=C(C[n+]3ccccc3)CS[C@H]12)c1csc(N)n1)C(=O)O [CAZ, ceftazidime]
MIC (Escherichia coli ec302; EC302, read-out: CAZ MIC): > 128 µg/mL
MIC (Escherichia coli ec310; EC310, read-out: CAZ MIC): 64 µg/mL (≈ 117 µM)
MIC ([2]; ATCCBAA2471, read-out: CAZ MIC): > 128 µg/mL
MIC ([3]; 95882CW2011, read-out: CAZ MIC): 128 µg/mL (≈ 234 µM)
MIC ([4]; ATCC35218, read-out: CAZ MIC): 0.25 µg/mL (≈ 0.457 µM)
MIC (Escherichia coli ec309; EC309, read-out: CAZ MIC): 64 µg/mL (≈ 117 µM)
MIC (Escherichia coli ec305; EC305, read-out: CAZ MIC): 1 µg/mL (≈ 1.83 µM)
MIC (Escherichia coli ec308; EC308, read-out: CAZ MIC): 128 µg/mL (≈ 234 µM)
MIC ([5]; 70122CW2007, read-out: CAZ MIC): 64 µg/mL (≈ 117 µM)
MIC (E. coli ATCC 25922 [6]; ATCC25922, read-out: CAZ MIC): 0.12 µg/mL (≈ 0.22 µM)

C[C@H]1CC[C@]2(NC1)O[C@H]1C[C@H]3[C@@H]4CC[C@H]5CC(NC[C@H](N)Cc6c[nH]c7ccccc67)CC[C@]5(C)[C@H]4CC[C@]3(C)[C@H]1[C@@H]2C (some centres unmarked) [TM-247]
MIC (E. coli MC4100 lptD4213): 2 µg/mL (≈ 3.41 µM)
IC50 (S. aureus ATP synthase): 1060 ± 240 nM
MIC (E. coli MC4100 WT; read-out: TM-247 MIC): 16 µg/mL (≈ 27.3 µM)
MIC (E. coli ATCC 25922 [7]; ATCC25922, read-out: TM-247 MIC): 8 µg/mL (≈ 13.6 µM)
IC50 (E. coli ATP synthase): 2120 ± 320 nM
MIC (S. aureus ATCC 29740hemB): ≤ 0.25 µg/mL
MIC ([9]; ATCC29740, read-out: TM-247 MIC): 2 µg/mL (≈ 3.41 µM)
MIC (E. coli MC4100 acrAB): 4 µg/mL (≈ 6.82 µM)
